# Laboratory results published in patent publication US20250221966A1, “RXFP1 AGONISTS” (BRISTOL-MYERS SQUIBB COMPANY, priority 2021, published 2025).
# Target: T1, human RXFP1 (Homo sapiens, UniProt Q9HBX9)
# T1 construct: expressed in transfected cells
# T1 sequence (Q9HBX9 1-757): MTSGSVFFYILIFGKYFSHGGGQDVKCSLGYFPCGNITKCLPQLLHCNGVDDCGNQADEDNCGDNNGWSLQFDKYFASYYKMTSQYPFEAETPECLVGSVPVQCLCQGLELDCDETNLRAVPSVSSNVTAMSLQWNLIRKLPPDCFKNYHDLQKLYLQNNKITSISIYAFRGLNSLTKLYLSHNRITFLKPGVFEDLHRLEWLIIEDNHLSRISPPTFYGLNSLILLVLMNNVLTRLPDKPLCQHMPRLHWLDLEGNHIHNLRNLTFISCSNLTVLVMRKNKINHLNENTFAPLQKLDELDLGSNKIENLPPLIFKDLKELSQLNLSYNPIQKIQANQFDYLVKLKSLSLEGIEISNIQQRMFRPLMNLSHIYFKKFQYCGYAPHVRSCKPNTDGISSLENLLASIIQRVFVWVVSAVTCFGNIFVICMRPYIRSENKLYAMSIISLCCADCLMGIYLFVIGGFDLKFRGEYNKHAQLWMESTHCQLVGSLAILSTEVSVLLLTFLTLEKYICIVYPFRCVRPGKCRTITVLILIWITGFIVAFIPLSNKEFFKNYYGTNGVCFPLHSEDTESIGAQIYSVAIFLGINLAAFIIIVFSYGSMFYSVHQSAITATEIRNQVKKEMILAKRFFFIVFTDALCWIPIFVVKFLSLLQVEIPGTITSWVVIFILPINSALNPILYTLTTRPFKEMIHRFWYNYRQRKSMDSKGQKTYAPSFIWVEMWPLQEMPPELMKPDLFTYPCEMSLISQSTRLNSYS
# Assay: RXFP1 cAMP assay (hRXFP1 HEK293 cAMP assay, HTRF)
# Format: cell-based
# Settings: HEK293 cells stably expressing human RXFP1, 30 min at room temperature, read-out: cAMP hRXFP1 HEK293 Assay EC50
# Outline: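 HEK293 cells stably expressing human RXFP1 (1500 cells/well) in HBSS/20 mM HEPES/0.05% BSA/0.5 mM IBMX. Compounds were tested at 0.010 nM–50 μM final (2% DMSO) for 30 min at room temperature. cAMP was measured by HTRF and values derived by 4-parameter logistic fit.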
row,SMILES,EC50
1,COc1ccc(C2=NOC(CC(=O)O)C2)cc1C(=O)N[C@@H]1C2CCC(/C2=C/C2CC2)[C@@H]1C(=O)Nc1ccc(F)c(C(F)(F)F)c1 (stereo partly drawn) [compound 391],49 nM
2,CCCCC1[C@H]2CC[C@@H]1[C@H](C(=O)Nc1ccc(F)c(C(F)(F)F)c1)[C@@H]2NC(=O)c1cc(C2=NOC3CC(CO)CC23)ccc1OC (stereo partly drawn) [Example 467],4 nM
3,COc1ccc(C2=NOC3COCC23)cc1C(=O)N[C@H]1[C@@H](C(=O)NCCc2cccc(C)c2)[C@H]2CC[C@@H]1/C2=C\C1CC1 (stereo partly drawn) [compound 650],262 nM
4,COc1cc(C)c(C2=NOC3CC(CO)CC23)cc1C(=O)N[C@H]1[C@@H](C(=O)Nc2ccc(F)c(C(F)(F)F)c2)[C@H]2CC[C@@H]1C2CC1CC1 (stereo partly drawn) [compound 739],3.4 nM
5,COc1c(F)cc(C2=NOC3CC(CO)CC23)cc1C(=O)N[C@H]1[C@@H](C(=O)N[C@H](C)C2(C)CC2)[C@H]2CC[C@@H]1/C2=C\C1CC(F)(F)C1 (stereo partly drawn) [compound 813],1 nM
6,COc1ccc(N2CCCC(C(=O)O)C2)cc1C(=O)N[C@@H]1C2CCC(C2=C(C)C)[C@@H]1C(=O)Nc1ccc(F)c(C(F)(F)F)c1 (stereo partly drawn) [compound 142],2900 nM
7,COc1ccc(-c2ccn(CC(=O)O)n2)cc1C(=O)N[C@@H]1C2CCC(/C2=C/C(F)(F)F)[C@@H]1C(=O)Nc1ccc(F)c(C(F)(F)F)c1 (stereo partly drawn) [compound 342],390 nM
8,COc1ccc(N2CC(CN)CC2=O)cc1C(=O)N[C@H]1[C@@H](C(=O)Nc2ccc(F)c(C(F)(F)F)c2)[C@H]2CC[C@@H]1/C2=C\C1CC1 (stereo partly drawn) [compound 712],1600 nM
9,CNC(=O)OC(C(=O)O)c1ccc(F)c(-c2ccc(OC)c(C(=O)N[C@@H]3C4CCC(/C4=C/C(F)(F)F)[C@@H]3C(=O)Nc3ccc(F)c(C(F)(F)F)c3)c2)c1 (stereo partly drawn) [compound 180],5 nM
10,COc1ccc(C2=NOC3COCC23)cc1C(=O)N[C@H]1[C@@H](C(=O)N[C@@H]2CCCc3ccccc32)[C@H]2CC[C@@H]1/C2=C\C1CC1 (stereo partly drawn) [compound 538],26.3 nM
11,COc1ccc(-c2cc(C3=NOC4CC(CO)CC34)ccc2F)cc1C(=O)N[C@H]1[C@@H](C(=O)Nc2ccc(F)c(C(F)(F)F)c2)[C@H]2CC[C@@H]1/C2=C\C1CCCC1 (stereo partly drawn) [compound 949],3.6 nM
12,COc1ccc(-c2cc(C(OC(=O)NC3CCC3)C(F)(F)F)ccc2F)cc1C(=O)N[C@@H]1C2CCC(/C2=C/C2CC2)[C@@H]1C(=O)Nc1ccc(F)c(C(F)(F)F)c1 (stereo partly drawn) [compound 211],1 nM
13,"COCCOC1(C2CC(c3ccc(OC)c(C(=O)N[C@H]4[C@@H](C(=O)Nc5ccc(F)c(C(F)(F)F)c5)[C@H]5CC[C@@H]4/C5=C\C4CC4)c3)=NO2)CC1 (single isomer, unassigned) [compound 687]",658 nM
14,COc1ccc(C2CCOCC2)cc1C(=O)NC1C2CCC(/C2=C/C2CCC2)C1C(=O)Nc1ccc(F)c(C(F)(F)F)c1 (stereo not drawn) [compound 369],65 nM
15,COc1ccc(-c2cccc(C3=NOC4CC(O)CC34)c2)cc1C(=O)N[C@H]1[C@@H](C(=O)Nc2ccc(F)c(C(F)(F)F)c2)[C@H]2CC[C@@H]1/C2=C\C1CC1 (stereo partly drawn) [compound 901],4.5 nM
16,COc1ccc(C2=NC[C@@H]3CCCN23)cc1C(=O)N[C@H]1[C@@H](C(=O)Nc2ccc(F)c(C(F)(F)F)c2)[C@H]2CC[C@@H]1/C2=C\C1CC1 [compound 708],1360 nM
17,COc1ccc(C2=NO[C@H]3COC[C@@H]23)cc1C(=O)N[C@H]1[C@@H](C(=O)Nc2ccc(F)c(C(F)(F)F)c2)[C@H]2CC[C@@H]1/C2=C\CCC(F)(F)F [compound 830],3.4 nM
18,COc1ccc(-c2cc(C(O)C(F)(F)F)ccc2F)cc1C(=O)N[C@@H]1C2CCC(/C2=C/C2CC2)[C@@H]1C(=O)Nc1ccc(F)c(C(F)(F)F)c1 (stereo partly drawn) [Example 245],3 nM
19,COc1ccc(-c2cc(C(=O)O)ccc2F)cc1C(=O)N[C@@H]1C2CCC(/C2=C/C2CC2)[C@@H]1C(=O)N[C@@H](C)c1ccccc1C(F)(F)F (stereo partly drawn) [compound 262],139 nM
20,"COc1ccc(C2=NOC(C(C)(C)O)C2)cc1C(=O)N[C@H]1[C@@H](C(=O)Nc2ccc(F)c(C(F)(F)F)c2)[C@H]2CC[C@@H]1/C2=C\C1CC1 (single isomer, unassigned) [compound 524]",21.9 nM
21,COc1ccc(C2=NOC3COCC23)cc1C(=O)N[C@H]1[C@@H](C(=O)N[C@@H](C)c2ccccc2C(F)(F)F)[C@H]2CC[C@@H]1/C2=C\C1CC1 (stereo partly drawn) [compound 665],373 nM

row,SMILES,EC50
1,COc1ccccc1C(=O)N[C@H]1[C@@H](C(=O)Nc2ccc(F)c(C(F)(F)F)c2)[C@H]2CC[C@@H]1/C2=C\c1ccccc1 [compound 90],330 nM
2,COc1ccc(C2=NOC3CC(O)CC23)cc1C(=O)N[C@H]1[C@@H](C(=O)Nc2ccc(F)c(C(F)(F)F)c2)[C@H]2CC[C@@H]1/C2=C\C(F)(F)F (stereo partly drawn) [compound 543],30.5 nM
3,"COc1ccc(C2CCOC2)cc1C(=O)N[C@H]1[C@@H](C(=O)Nc2ccc(F)c(C(F)(F)F)c2)[C@H]2CC[C@@H]1/C2=C\C(F)(F)F (stereo partly drawn) [Example 360, (1R,2S,3R,4R,Z)—N-(4-fluoro-3-(trifluoromethyl)phenyl)-3-(2-methoxy-5-(tetrahydrofuran-3-yl)benzamido)-7-(2,2,2-trifluoroethylidene)bicyclo[2.2.1]heptane-2-carboxamide]",1940 nM
4,COc1cc(F)c(F)cc1C(=O)N[C@@H]1C2CCC(/C2=C/c2cccc(OC(F)F)c2)[C@@H]1C(=O)Nc1ccc(F)c(C(F)(F)F)c1 (stereo partly drawn) [compound 27],380 nM
5,COc1ccc(-c2cc([C@H](O)C(F)(F)F)ccc2F)cc1C(=O)NC1C2CCC(/C2=C/C2CC(F)(F)C2)C1C(=O)Nc1ccc(F)c(C(F)(F)F)c1 (stereo partly drawn) [compound 358],18 nM
6,COC(=O)C(NC(=O)C1CCOCC1)c1ccc(F)c(-c2ccc(OC)c(C(=O)N[C@@H]3C4CCC(/C4=C/C(F)(F)F)[C@@H]3C(=O)Nc3ccc(F)c(C(F)(F)F)c3)c2)c1 (stereo partly drawn) [compound 247],73 nM
7,COc1ccc(-c2cc(OC(F)(F)F)ccc2F)cc1C(=O)N[C@@H]1C2CCC(/C2=C/C2CC2)[C@@H]1C(=O)Nc1ccc(F)c(C(F)(F)F)c1 (stereo partly drawn) [compound 285],7 nM
8,COc1ccc(C2CCCN2C(=O)C(C)(C)O)cc1C(=O)N[C@@H]1C2CCC(C2=CC2CC2)[C@@H]1C(=O)Nc1ccc(F)c(C(F)(F)F)c1 (stereo partly drawn) [compound 671],451 nM
9,COc1ccc(C2=NOC3COCC23)cc1C(=O)N[C@H]1[C@@H](C(=O)NC2(C)CCCC2)[C@H]2CC[C@@H]1/C2=C\C1CC1 (stereo partly drawn) [compound 494],10.4 nM
10,COc1ccc(C2=NOC3COCC23)cc1C(=O)N[C@H]1[C@@H](C(=O)NCC2CC2)[C@H]2CC[C@@H]1/C2=C\C1CC1 (stereo partly drawn) [compound 684],642 nM
11,COc1c(F)cc(C2=NOC3CC(CO)CC23)cc1C(=O)N[C@H]1[C@@H](C(=O)N[C@H](C)C2(C)CC2)[C@H]2CC[C@@H]1/C2=C\C1CC1 (stereo partly drawn) [compound 757],0.9 nM
12,COc1ccc(C2=NOC3COCC23)cc1C(=O)N[C@H]1[C@@H](C(=O)NCc2ccccc2C2CC2)[C@H]2CC[C@@H]1/C2=C\C1CC1 (stereo partly drawn) [compound 606],121 nM
13,COc1ccc(C2=NOC3COCC23)cc1C(=O)N[C@H]1[C@@H](C(=O)NCc2ncccc2C(F)(F)F)[C@H]2CC[C@@H]1/C2=C\C1CC1 (stereo partly drawn) [compound 690],712 nM
14,COc1c(F)cc(C2=NOC3CC(CO)CC23)cc1C(=O)N[C@H]1[C@@H](C(=O)N[C@H](C)C23CC(C2)C3)[C@H]2CC[C@@H]1/C2=C\C1CC1 (stereo partly drawn) [compound 776],5 nM
15,COc1ccc(C2=NO[C@H]3CC(CO)C[C@@H]23)cc1C(=O)N[C@H]1[C@@H](C(=O)Nc2ccc(F)c(C(F)(F)F)c2)[C@H]2CC[C@@H]1/C2=C\CCF (stereo partly drawn) [compound 814],1.2 nM
16,COc1ccc(-c2cc(C(O)C(=O)O)ccc2F)cc1C(=O)NC1C2CCC(/C2=C/C2CCC2)C1C(=O)Nc1ccc(F)c(C(F)(F)F)c1 (stereo not drawn) [compound 356],5 nM
17,COc1cc(F)c(F)cc1C(=O)N[C@@H]1C2CCC(/C2=C/c2cccc(C(F)(F)F)c2)[C@@H]1C(=O)Nc1ccc(F)c(C(F)(F)F)c1 (stereo partly drawn) [compound 25],200 nM
18,COc1ccc(-c2ccc(C(CC(=O)O)C(F)(F)F)cc2F)cc1C(=O)N[C@H]1[C@@H](C(=O)Nc2ccc(F)c(C(F)(F)F)c2)[C@H]2CC[C@@H]1/C2=C\C1CC1 (stereo partly drawn) [compound 883],2.5 nM
19,COc1c(F)cc(-c2cnc3n2CC(O)CC3)cc1C(=O)N[C@H]1[C@@H](C(=O)Nc2ccc(F)c(C(F)(F)F)c2)[C@H]2CC[C@@H]1/C2=C\C1CC1 (stereo partly drawn) [compound 753],3.3 nM
20,"COc1cc(C2CC2)c(C2=NOC3COCC23)cc1C(=O)N[C@H]1[C@@H](C(=O)Nc2ccc(F)c(C(F)(F)F)c2)[C@H]2CC[C@@H]1/C2=C\C1CC1 (single isomer, unassigned) [compound 695]",836 nM
21,COc1ccc(C2=NO[C@@H]3C[C@H](CO)CN23)cc1C(=O)N[C@H]1[C@@H](C(=O)N[C@H](C)C2(C)CC2)[C@H]2CC[C@@H]1/C2=C\C1CC1 [compound 768],3 nM
